Measured values published in ChEMBL document CHEMBL3044639, “Synthesis and biologic activities of some novel heterocyclic chalcone derivatives” (Med Chem Res, 2013).
Active and inactive are the calls of the source. The calls are words filed in the database; no cut-off is given here.

Experiments:
Staphylococcus aureus [1] = assay: Antibacterial activity against Staphylococcus aureus 1199B overexpressing NorA assessed as reduction of ciprofloxacin MIC at MEC after 18 hr by broth checkerboard method relative to control; assay type: functional
Staphylococcus aureus [2] = assay: Antibacterial activity against Staphylococcus aureus 1199B overexpressing NorA assessed as growth inhibition after 18 hr by broth checkerboard method; assay type: functional; details: read-out: MEC
Rattus norvegicus = assay: Anti-inflammatory activity in Wistar Rattus norvegicus (rat) assessed as inhibition of carrageenan-induced paw edema at 100 mg/kg, po administered 45 min prior to carrageenan-challenge measured 45 min to 4 hr post carrageenan-challenge relative to control; assay type: functional
[3] = tested on: Radical scavenging activity; assay: Antioxidant activity assessed as DPPH radical scavenging activity after 20 min by microplate ELISA reader analysis; assay type: functional
MOLT-4 = assay: Cytotoxicity against Homo sapiens (human) MOLT4 cells assessed as growth inhibition after 48 hr by MTT assay; assay type: functional, cell-based; details: MOLT-4, 48 h
HeLa = assay: Cytotoxicity against Homo sapiens (human) HeLa cells assessed as growth inhibition after 48 hr by MTT assay; assay type: functional, cell-based
HL-60 = assay: Cytotoxicity against Homo sapiens (human) HL60 cells assessed as growth inhibition after 48 hr by MTT assay; assay type: functional, cell-based; details: HL-60, 48 h
PC-3 = assay: Cytotoxicity against Homo sapiens (human) PC3 cells assessed as growth inhibition after 48 hr by MTT assay; assay type: functional, cell-based; details: PC-3, 48 h

Compound	fold change (FC) (Staphylococcus aureus [1])	minimal effective concentration (Staphylococcus aureus [2]) [µg/mL]	inhibition (Rattus norvegicus)	Activity [3]	IC50 (MOLT-4) [µM]	IC50 (HeLa) [µM]	IC50 (HL-60) [µM]	IC50 (PC-3) [µM]	inhibition in vivo at 100 mg/kg (Rattus norvegicus) [%]
O=C(/C=C/c1c(Cl)cccc1Cl)c1ccc[nH]1	0	> 50	inactive	inactive					
COC(=O)[C@H]1[C@H]2C[C@@H]3c4[nH]c5cc(OC)ccc5c4CCN3C[C@H]2C[C@@H](OC(=O)c2cc(OC)c(OC)c(OC)c2)[C@@H]1OC [RESERPINE]	0	25							
COc1ccc(CCN(C)CCCC(C#N)(c2ccc(OC)c(OC)c2)C(C)C)cc1OC (configuration not stated) [VERAPAMIL]	2	50							
COc1ccc(/C=C/C(=O)c2ccco2)cc1	0	> 50	inactive	inactive					
COc1cccc(/C=C/C(=O)c2ccc[nH]2)c1	0	> 50	inactive	inactive	28	30	16	24	
COc1ccc(/C=C/C(=O)c2ccc[nH]2)c(OC)c1	2	25	inactive	inactive					
O=C(/C=C/c1ccc(F)cc1)c1ccco1	0	> 50	inactive	inactive					
O=C(/C=C/c1ccc(F)cc1)c1ccc[nH]1	2	25	inactive	inactive					
O=C(/C=C/c1ccc2c(c1)OCO2)c1ccc[nH]1	0	> 50	inactive	inactive					
COc1cccc(/C=C/C(=O)c2ccc[nH]2)c1OC	4	25	inactive	inactive					
O=C(/C=C/c1ccc(Cl)cc1Cl)c1ccc[nH]1	0	> 50	inactive	inactive	13	26	22	22	
O=C(/C=C/c1cc([N+](=O)[O-])ccc1Cl)c1ccco1	0	> 50	inactive	inactive	72	> 100	58	62	
COc1cccc(OC)c1/C=C/C(=O)c1ccc[nH]1	0	> 50	inactive	inactive					
COc1cc(/C=C/C(=O)c2ccco2)cc(OC)c1OC	0	> 50	inactive	inactive					
COc1ccc(/C=C/C(=O)c2ccco2)cc1OC	0	> 50		inactive					23
O=C(/C=C/c1ccc2c(c1)OCO2)c1ccco1	0	> 50	inactive	inactive					
O=C(/C=C/c1ccc(Cl)cc1)c1ccc[nH]1	0	> 50	inactive	inactive	22	25	13	18	
O=C(/C=C/c1ccccc1Br)c1ccc[nH]1	4	25	inactive	inactive	38	44	42	44	
COc1ccc(/C=C/C(=O)c2ccc[nH]2)cc1OC	0	> 50	inactive	inactive					

Compound	fold change (FC) (Staphylococcus aureus [1])	minimal effective concentration (Staphylococcus aureus [2]) [µg/mL]	inhibition (Rattus norvegicus)	Activity [3]	IC50 (MOLT-4) [µM]	IC50 (HeLa) [µM]	IC50 (HL-60) [µM]	IC50 (PC-3) [µM]	inhibition in vivo at 100 mg/kg (Rattus norvegicus) [%]
CN(C)c1ccc(/C=C/C(=O)c2ccco2)cc1	4	12.5	inactive	inactive	12	20	12	13	
O=C(/C=C/c1ccccc1Cl)c1ccc[nH]1	4	25	inactive	inactive					
O=C(/C=C/c1ccc(Br)cc1)c1ccc[nH]1	0	> 50	inactive	inactive	49	> 100	32	44	
O=C(/C=C/c1ccc(Br)cc1)c1ccco1	2	25	inactive	inactive	62	> 100	48	58	
CN(C)c1ccc(/C=C/C(=O)c2ccc[nH]2)cc1	0	> 50	inactive	inactive					
O=C(/C=C/c1ccc([N+](=O)[O-])cc1)c1ccco1	0	> 50	inactive	inactive					
COc1cccc(/C=C/C(=O)c2ccco2)c1OC	4	25	inactive	inactive					
O=C(/C=C/c1cccc(Cl)c1Cl)c1ccc[nH]1	0	> 50	inactive	inactive					
O=C(/C=C/c1ccccc1Br)c1ccco1	0	> 50	inactive	inactive					
O=C(/C=C/c1cccc([N+](=O)[O-])c1)c1ccc[nH]1	0	> 50	inactive	inactive	22	32	20	23	
COc1ccc(OC)c(/C=C/C(=O)c2ccco2)c1	0	> 50	inactive	inactive					
O=C(/C=C/c1ccc(Cl)cc1)c1ccco1	0	> 50	inactive	inactive	23	38	19	29	
COc1ccc(/C=C/C(=O)c2ccc[nH]2)cc1	2	25	inactive	inactive					
O=C(/C=C/c1ccccc1)c1ccc[nH]1	0	> 50	inactive	inactive	> 100	> 100	> 100	> 100	
O=C(/C=C/c1ccccc1Cl)c1ccco1	0	> 50	inactive	inactive	25	26	12	14	
O=C(/C=C/c1cc([N+](=O)[O-])ccc1Cl)c1ccc[nH]1	0	> 50	inactive	inactive	42	68	38	55	
O=C(/C=C/c1cccc([N+](=O)[O-])c1)c1ccco1	0	> 50	inactive	inactive	18	22	14	14	
O=C(/C=C/c1ccccc1)c1ccco1	0	> 50	inactive	inactive	> 100	> 100	100	> 100	
O=C(/C=C/c1ccc([N+](=O)[O-])cc1)c1ccc[nH]1	0	> 50	inactive	inactive	15	26	14	13	
